Experimental findings from US20240246918A1, “COMPOUNDS AND COMPOSITIONS AS EIF4E INHIBITORS AND THE USES THEREOF” (Ribometrix, Inc., priority 2022, published 2024) are described below.

Each structure is given as a SMILES string. Some results are limits rather than exact numbers.

The target in the first assay is T1, human eIF4E protein (Homo sapiens, UniProt P06730).
T1 construct: purchased Novus NBP-45314
T1 sequence (P06730 whole entry): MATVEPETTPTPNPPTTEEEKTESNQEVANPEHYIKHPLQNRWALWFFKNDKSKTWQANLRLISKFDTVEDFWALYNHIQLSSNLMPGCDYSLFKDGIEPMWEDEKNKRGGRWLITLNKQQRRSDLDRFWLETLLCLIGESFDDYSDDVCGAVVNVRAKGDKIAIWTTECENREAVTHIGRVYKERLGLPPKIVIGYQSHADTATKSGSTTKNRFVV
Put plainly: Biochemical competitive binding assay (TR-FRET competition, EDA-m7GDP-ATTO-647N probe). Conditions: read-out: hEIF4E TR-FRET IC50. In a few lines:
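His-tagged human eIF4E (4 nM) was preincubated with Eu-anti-His antibody (2.5 nM) and added to compound (11-point, 4-fold dilutions) for 15 min. Then 5 nM EDA-m7GDP-ATTO-647N was added for 15 min, in HEPES pH 7.5, 100 mM KCl. The 665/620 TR-FRET ratio was normalized to controls, and IC50 was taken from 4-parameter fits.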
The IC50 is the concentration that inhibits the measured activity by half. Consider `Cc1cc(-c2cc(Cl)ccc2OCCn2c(C)nc3c(c2=O)CC(N2CCc4ncsc4C2)CC3)c2scc(C(=O)O)c2n1` (stereo not drawn) [Compound 164], for which the IC50 is under 0.1 µM.
The same measure, in the same setting: to `Cc1cc(-c2cc(Cl)ccc2OCCn2c(C)nc3c(c2=O)C[C@@H](N(C)C[C@H]2C[C@H](C(F)(F)F)C2)CC3)c2scc(C(=O)O)c2n1` (single isomer, unassigned) [Compound 221] belongs under 0.1 µM; to `Cc1cc(-c2cc(Cl)ccc2OCCn2c(C)nc3c(c2=O)CC(N(C)C2(C4CCC4)CC2)CC3)c2scc(C(=O)NS(C)(=O)=O)c2n1` (single isomer, unassigned) [Compound 232], under 0.1 µM; to `Cc1cc(-c2cc(Cl)ccc2OCCn2c(C)nc3c(c2=O)CC(N2CCC(C)(O)CC2)CC3)c2scc(C(=O)O)c2n1` (stereo not drawn) [Compound 209], under 0.1 µM.
On the same count and under the same terms, to `Cc1cc(-c2cc(Cl)ccc2OCCn2c(C)nc3c(c2=O)CC(N2CCC4(CCC(F)(F)CC4)C2)CC3)c2scc(C(=O)O)c2n1` (stereo not drawn) [Compound 170] belongs under 0.1 µM.
`Cc1cc(-c2cc(Cl)ccc2OCCn2c(C)nc3c(c2=O)CC(N(C)Cc2ccsc2)CC3)c2scc(C(=O)O)c2n1` (stereo not drawn) [Compound 191]: the IC50 is under 0.1 µM.
Same read-out and setting: to `Cc1cc(-c2ccc(Cl)cc2OCCn2c(C)nc3c(c2=O)C[C@H](N(C)[C@H]2C[C@@](C)(O)C2)CC3)c2scc(C(=O)O)c2n1` (single isomer, unassigned) [Compound 229] belongs under 0.1 µM.
On the same count and under the same terms, the same measure for `Cc1cc(-c2cc(Cl)ccc2OCCn2c(C)nc3c(c2=O)C[C@H](N(C)C[C@H]2C[C@H](C(F)(F)F)C2)CC3)c2scc(C(=O)O)c2n1` (single isomer, unassigned) [Compound 213]: under 0.1 µM; for `COC1CCN(C2CCc3nc(C)n(CCOc4ccc(Cl)cc4-c4cc(C)nc5c(C(=O)NC6CC(F)(F)C6)csc45)c(=O)c3C2)CC1` (stereo not drawn) [Compound 144]: 0.5 to 5 µM; for `Cc1cc(-c2cc(Cl)ccc2OCCn2c(C)nc3c(c2=O)CC(N2CCC(OC(F)(F)F)CC2)CC3)c2scc(C(=O)O)c2n1` (stereo not drawn) [Compound 178]: under 0.1 µM.
Same read-out and setting: the same measure for `COC1CCN(C2Cc3c(cc(C)n(CCOc4ccc(Cl)cc4-c4cc(C)nc5c(C(=O)O)csc45)c3=O)C3(CC3)C2)CC1` (stereo not drawn) [Compound 151]: under 0.1 µM.
Take `Cc1cc(-c2cc(Cl)ccc2OCCn2c(C)nc3c(c2=O)CC(N(C)Cc2cccnc2)CC3)c2scc(C(=O)O)c2n1` (stereo not drawn) [Compound 196]: the half-inhibitory concentration (IC50) was under 0.1 µM.
Still for that read-out and setting: to `Cc1cc(-c2cc(Cl)ccc2OCCn2c(C)nc3c(c2=O)CC(N2CCC4(CC2)CC4)CC3)c2scc(C(=O)O)c2n1` (stereo not drawn) [Compound 192] belongs under 0.1 µM; to `Cc1cc(-c2cc(Cl)ccc2OCCn2c(C)nc3c(c2=O)C[C@@H](N2CCC[C@]4(C2)CC4(F)F)CC3)c2scc(C(=O)O)c2n1` (single isomer, unassigned) [Compound 140], under 0.1 µM.
Still for that read-out and setting: the same measure for `Cc1cc(-c2cc(Cl)ccc2OCCn2c(C)nc3c(c2=O)CC(N(C)Cc2cnc(C)s2)CC3)c2scc(C(=O)O)c2n1` (stereo not drawn) [Compound 185]: under 0.1 µM; for `Cc1cc(-c2cc(Cl)ccc2OCCn2c(C)nc3c(c2=O)CC(N2CCc4ncccc4C2)CC3)c2scc(C(=O)O)c2n1` (stereo not drawn) [Compound 180]: under 0.1 µM.

Another assay deals with COLO 205 colorectal tumor cells. Put plainly: Tumor cell viability inhibition assay (CellTiter-Glo 2.0, 72 hours). It is filed as cell-based. The note with it: COLO 205 cell viability. In a few lines: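 COLO 205 cells (1500/well, RPMI-1640 + 10% FBS) exposed for 72 h to an 11-point, 4-fold dilution series; cellular ATP read by CellTiter-Glo 2.0 luminescence. Data normalized to DMSO and maximum-inhibition controls; IC50 from 4-parameter curve fit.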
(In ATP-based viability assays light output follows the ATP content of the culture.)
As to `Cc1cc(-c2cc(Cl)ccc2OCCn2c(C)nc3c(c2=O)CC(N(C)C2(C4CCC4)CC2)CC3)c2scc(C(=O)NS(C)(=O)=O)c2n1` (single isomer, unassigned) [Compound 232], the IC50 is under 5 µM.

Still in this assay, the particulars now being: Homo sapiens, COLO 205, 72 h, COLO 205 cell viability.
In the case of `Cc1cc(-c2cc(Cl)ccc2OCCn2c(C)nc3c(c2=O)CC(N2CCc4ncsc4C2)CC3)c2scc(C(=O)O)c2n1` (stereo not drawn) [Compound 164], the IC50 is under 5 µM.
The same measure, in the same setting: to `Cc1cc(-c2cc(Cl)ccc2OCCn2c(C)nc3c(c2=O)C[C@@H](N(C)C[C@H]2C[C@H](C(F)(F)F)C2)CC3)c2scc(C(=O)O)c2n1` (single isomer, unassigned) [Compound 221] belongs under 5 µM; to `Cc1cc(-c2cc(Cl)ccc2OCCn2c(C)nc3c(c2=O)CC(N2CCC(C)(O)CC2)CC3)c2scc(C(=O)O)c2n1` (stereo not drawn) [Compound 209], over 20 µM.
Still for that read-out and setting: to `Cc1cc(-c2cc(Cl)ccc2OCCn2c(C)nc3c(c2=O)CC(N2CCC4(CCC(F)(F)CC4)C2)CC3)c2scc(C(=O)O)c2n1` (stereo not drawn) [Compound 170] belongs under 5 µM; to `Cc1cc(-c2cc(Cl)ccc2OCCn2c(C)nc3c(c2=O)CC(N(C)Cc2ccsc2)CC3)c2scc(C(=O)O)c2n1` (stereo not drawn) [Compound 191], under 5 µM; to `Cc1cc(-c2ccc(Cl)cc2OCCn2c(C)nc3c(c2=O)C[C@H](N(C)[C@H]2C[C@@](C)(O)C2)CC3)c2scc(C(=O)O)c2n1` (single isomer, unassigned) [Compound 229], over 20 µM.
Same read-out and setting: to `Cc1cc(-c2cc(Cl)ccc2OCCn2c(C)nc3c(c2=O)C[C@H](N(C)C[C@H]2C[C@H](C(F)(F)F)C2)CC3)c2scc(C(=O)O)c2n1` (single isomer, unassigned) [Compound 213] belongs under 5 µM; to `COC1CCN(C2CCc3nc(C)n(CCOc4ccc(Cl)cc4-c4cc(C)nc5c(C(=O)NC6CC(F)(F)C6)csc45)c(=O)c3C2)CC1` (stereo not drawn) [Compound 144], 5 to 20 µM.
As to `Cc1cc(-c2cc(Cl)ccc2OCCn2c(C)nc3c(c2=O)CC(N2CCC(OC(F)(F)F)CC2)CC3)c2scc(C(=O)O)c2n1` (stereo not drawn) [Compound 178], the IC50 was under 5 µM.
The compound `COC1CCN(C2Cc3c(cc(C)n(CCOc4ccc(Cl)cc4-c4cc(C)nc5c(C(=O)O)csc45)c3=O)C3(CC3)C2)CC1` (stereo not drawn) [Compound 151] had an IC50 of under 5 µM.
In turn, `Cc1cc(-c2cc(Cl)ccc2OCCn2c(C)nc3c(c2=O)CC(N(C)Cc2cccnc2)CC3)c2scc(C(=O)O)c2n1` (stereo not drawn) [Compound 196] registered an IC50 of under 5 µM.
The same measure, in the same setting: to `Cc1cc(-c2cc(Cl)ccc2OCCn2c(C)nc3c(c2=O)CC(N2CCC4(CC2)CC4)CC3)c2scc(C(=O)O)c2n1` (stereo not drawn) [Compound 192] belongs under 5 µM; to `Cc1cc(-c2cc(Cl)ccc2OCCn2c(C)nc3c(c2=O)C[C@@H](N2CCC[C@]4(C2)CC4(F)F)CC3)c2scc(C(=O)O)c2n1` (single isomer, unassigned) [Compound 140], under 5 µM; to `Cc1cc(-c2cc(Cl)ccc2OCCn2c(C)nc3c(c2=O)CC(N(C)Cc2cnc(C)s2)CC3)c2scc(C(=O)O)c2n1` (stereo not drawn) [Compound 185], under 5 µM.
On the same count and under the same terms, to `Cc1cc(-c2cc(Cl)ccc2OCCn2c(C)nc3c(c2=O)CC(N2CCc4ncccc4C2)CC3)c2scc(C(=O)O)c2n1` (stereo not drawn) [Compound 180] belongs under 5 µM.

The subject of another assay is cyclin D1 protein levels in COLO 205 cells. Kind of assay: Cyclin D1 cellular inhibition assay (HTRF, 6 hours). It is filed as cell-based. Conditions: 6 hours of compound treatment, Cyclin D1 protein levels by HTRF, read-out: COLO 205 6 h Cyclin D1 TR-FRET IC50. On the procedure: The effect of compound treatment on cyclin D1 protein levels in COLO 205 cells was assessed, as follows. Test compound plates were prepared with a Tecan D300e Digital Dispenser as 11-point concentration-response curves with a final DMSO concentration of 1%. COLO 205 (ATCC, CCL-222) colorectal tumor cells were seeded to assay-ready plates in RPMI-1640 medium supplemented with 10% FBS at 20,000 cells in a volume of 6 microliters per well. After 6 hours of compound treatment, cells were lysed and Cyclin D1 protein levels were assessed by an HTRF assay (PerkinElmer #64CYCD1ITPEG), according to the manufacturer's protocol. Time-resolved fluorescence was measured using a Clariostar Plus microplate reader (BMG Labtech) or equivalent. After normalization to the average of DMSO control and maximum inhibition control wells, concentration-response data were plotted and standard 4-parameter curve fitting (GraphPad Prism v9.4.1) was utilized to determine IC50 values.
(In TR-FRET formats the signal depends on donor and acceptor labels being close together.)
For the compound `Cc1cc(-c2cc(Cl)ccc2OCCn2c(C)nc3c(c2=O)CC(N(C)C2(C4CCC4)CC2)CC3)c2scc(C(=O)NS(C)(=O)=O)c2n1` (single isomer, unassigned) [Compound 232], the IC50 was under 5 µM.

Staying with this assay, now noted: Homo sapiens, COLO 205, 6 h, 6 hours of compound treatment, Cyclin D1 protein levels by HTRF, read-out: COLO 205 6 h Cyclin D1 TR-FRET IC50.
For `Cc1cc(-c2cc(Cl)ccc2OCCn2c(C)nc3c(c2=O)CC(N2CCc4ncsc4C2)CC3)c2scc(C(=O)O)c2n1` (stereo not drawn) [Compound 164], the IC50 was under 5 µM.
The same measure, in the same setting: to `Cc1cc(-c2cc(Cl)ccc2OCCn2c(C)nc3c(c2=O)C[C@@H](N(C)C[C@H]2C[C@H](C(F)(F)F)C2)CC3)c2scc(C(=O)O)c2n1` (single isomer, unassigned) [Compound 221] belongs under 5 µM.
The same measure, in the same setting: to `Cc1cc(-c2cc(Cl)ccc2OCCn2c(C)nc3c(c2=O)CC(N2CCC(C)(O)CC2)CC3)c2scc(C(=O)O)c2n1` (stereo not drawn) [Compound 209] belongs over 20 µM; to `Cc1cc(-c2cc(Cl)ccc2OCCn2c(C)nc3c(c2=O)CC(N2CCC4(CCC(F)(F)CC4)C2)CC3)c2scc(C(=O)O)c2n1` (stereo not drawn) [Compound 170], under 5 µM.
The same measure, in the same setting: to `Cc1cc(-c2cc(Cl)ccc2OCCn2c(C)nc3c(c2=O)CC(N(C)Cc2ccsc2)CC3)c2scc(C(=O)O)c2n1` (stereo not drawn) [Compound 191] belongs under 5 µM.
`Cc1cc(-c2ccc(Cl)cc2OCCn2c(C)nc3c(c2=O)C[C@H](N(C)[C@H]2C[C@@](C)(O)C2)CC3)c2scc(C(=O)O)c2n1` (single isomer, unassigned) [Compound 229]: the IC50 was over 20 µM.
On the same count and under the same terms, the same measure for `Cc1cc(-c2cc(Cl)ccc2OCCn2c(C)nc3c(c2=O)C[C@H](N(C)C[C@H]2C[C@H](C(F)(F)F)C2)CC3)c2scc(C(=O)O)c2n1` (single isomer, unassigned) [Compound 213]: under 5 µM.
Same read-out and setting: to `COC1CCN(C2CCc3nc(C)n(CCOc4ccc(Cl)cc4-c4cc(C)nc5c(C(=O)NC6CC(F)(F)C6)csc45)c(=O)c3C2)CC1` (stereo not drawn) [Compound 144] belongs over 20 µM; to `Cc1cc(-c2cc(Cl)ccc2OCCn2c(C)nc3c(c2=O)CC(N2CCC(OC(F)(F)F)CC2)CC3)c2scc(C(=O)O)c2n1` (stereo not drawn) [Compound 178], under 5 µM.
On the same count and under the same terms, the same measure for `COC1CCN(C2Cc3c(cc(C)n(CCOc4ccc(Cl)cc4-c4cc(C)nc5c(C(=O)O)csc45)c3=O)C3(CC3)C2)CC1` (stereo not drawn) [Compound 151]: under 5 µM; for `Cc1cc(-c2cc(Cl)ccc2OCCn2c(C)nc3c(c2=O)CC(N(C)Cc2cccnc2)CC3)c2scc(C(=O)O)c2n1` (stereo not drawn) [Compound 196]: under 5 µM.
Consider `Cc1cc(-c2cc(Cl)ccc2OCCn2c(C)nc3c(c2=O)CC(N2CCC4(CC2)CC4)CC3)c2scc(C(=O)O)c2n1` (stereo not drawn) [Compound 192], for which the IC50 was under 5 µM.
Same read-out and setting: the same measure for `Cc1cc(-c2cc(Cl)ccc2OCCn2c(C)nc3c(c2=O)C[C@@H](N2CCC[C@]4(C2)CC4(F)F)CC3)c2scc(C(=O)O)c2n1` (single isomer, unassigned) [Compound 140]: under 5 µM; for `Cc1cc(-c2cc(Cl)ccc2OCCn2c(C)nc3c(c2=O)CC(N(C)Cc2cnc(C)s2)CC3)c2scc(C(=O)O)c2n1` (stereo not drawn) [Compound 185]: under 5 µM; for `Cc1cc(-c2cc(Cl)ccc2OCCn2c(C)nc3c(c2=O)CC(N2CCc4ncccc4C2)CC3)c2scc(C(=O)O)c2n1` (stereo not drawn) [Compound 180]: under 5 µM.
